Reference: patent publication US20040102364A1, “Backbone cyclized radiolabelled somatostatin analogs” (priority 2001, published 2004)
Where two headings read alike, the source gives them in different places.

Tests used:
rat SST-R4 = rat SST-R4 (Rattus norvegicus, UniProt P30937); assay: Subtype selectivity binding, rat SST-R4
Description: (§1) The SST analogs were tested for their potency in inhibition of the binding of ^125I-Tyr^11-SRIF (based on the method described by Raynor et. al., Molecular Pharmacology 43: 838, 1993) to membrane preparations expressing the transmembranal SST receptors (SST-R1, 2, 3, 4 or 5). The receptor preparations used for these tests were either from the cloned human receptors selectively and stably expressed in Chinese Hamster Ovary (CHO) cells or from cell lines naturally expressing the SST-Rs. […] The binding reactions were filtered, the filters were washed and the bound radioactivity was counted in β counter after addition of scintillation solution.
(§2) MPS-30012-02, 30012-08 and 30012-24 were all re-synthesized naked, purified and radiolabelled with ^99mTc. In vitro binding studies on all three ^99mTc compounds was performed. 30012-05, 30012-08 and 30012-24 were screened for subtype selectivity analysis.

rat SST-R5 = target: T1, rat SST-R5 (Rattus norvegicus, UniProt P30938); assay: Subtype selectivity binding, rat SST-R5
T1 sequence (P30938 1-363): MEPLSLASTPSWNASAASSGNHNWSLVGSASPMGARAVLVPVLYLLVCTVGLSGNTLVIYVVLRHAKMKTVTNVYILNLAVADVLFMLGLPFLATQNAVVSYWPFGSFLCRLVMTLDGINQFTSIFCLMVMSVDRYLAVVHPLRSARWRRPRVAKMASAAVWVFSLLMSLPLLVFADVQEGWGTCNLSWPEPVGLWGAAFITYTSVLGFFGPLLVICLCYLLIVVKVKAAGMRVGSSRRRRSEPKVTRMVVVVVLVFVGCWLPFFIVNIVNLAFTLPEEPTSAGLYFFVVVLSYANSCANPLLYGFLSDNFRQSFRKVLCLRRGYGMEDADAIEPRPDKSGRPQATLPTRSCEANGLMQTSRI
Description: as §1, §2

rat SST-R2 = rat SST-R2 (Rattus norvegicus, UniProt P30680); assay: Subtype selectivity binding, rat SST-R2
Description: as §1, §2

rat SST-R1 = rat SST-R1 (Rattus norvegicus, UniProt P28646); assay: Subtype selectivity binding, rat SST-R1
Description: as §1, §2

rat SST-R3 = rat SST-R3 (Rattus norvegicus, UniProt P30936); assay: Subtype selectivity binding, rat SST-R3
Description: as §1, §2

SST-R2 = SST-R2 (Homo sapiens, UniProt P30874); assay: Inhibition of SRIF binding to SST-R2 (species not stated); conditions: for inhibition at 10 pM: read-out: IC50 Screen SRIF Inhibited (%) 0.01 nM; for inhibition at 0.0001 µM: read-out: IC50 Screen SRIF Inhibited (%) 0.1 nM; for inhibition at 0.001 µM: read-out: IC50 Screen SRIF Inhibited (%) 1 nM
Description: as §1, with “solution. […]” for “solution.”

[1] = Quick Screen, 10 nM, SST-R2, read-out: Quick Screen SRIF Inhibited (%) 10 nM
[2] = Quick Screen, 100 nM, SST-R2, read-out: Quick Screen SRIF Inhibited (%) 100 nM
[3] = read-out: IC50 Screen SRIF Inhibited (%) 10 nM
[4] = read-out: IC50 Screen SRIF Inhibited (%) 100 nM

Sequence of SST-R2 (P30874 whole entry): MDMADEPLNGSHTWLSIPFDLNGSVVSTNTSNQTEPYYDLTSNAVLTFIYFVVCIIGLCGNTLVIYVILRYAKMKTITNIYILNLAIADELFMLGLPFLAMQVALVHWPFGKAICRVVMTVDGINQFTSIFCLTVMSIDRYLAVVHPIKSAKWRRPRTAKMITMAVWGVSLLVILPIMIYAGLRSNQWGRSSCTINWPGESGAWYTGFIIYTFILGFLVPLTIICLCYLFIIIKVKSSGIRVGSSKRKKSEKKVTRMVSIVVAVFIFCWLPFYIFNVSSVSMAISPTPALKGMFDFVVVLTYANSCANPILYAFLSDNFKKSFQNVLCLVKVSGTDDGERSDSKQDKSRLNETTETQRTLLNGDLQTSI
Sequence of rat SST-R2 (P30680 whole entry): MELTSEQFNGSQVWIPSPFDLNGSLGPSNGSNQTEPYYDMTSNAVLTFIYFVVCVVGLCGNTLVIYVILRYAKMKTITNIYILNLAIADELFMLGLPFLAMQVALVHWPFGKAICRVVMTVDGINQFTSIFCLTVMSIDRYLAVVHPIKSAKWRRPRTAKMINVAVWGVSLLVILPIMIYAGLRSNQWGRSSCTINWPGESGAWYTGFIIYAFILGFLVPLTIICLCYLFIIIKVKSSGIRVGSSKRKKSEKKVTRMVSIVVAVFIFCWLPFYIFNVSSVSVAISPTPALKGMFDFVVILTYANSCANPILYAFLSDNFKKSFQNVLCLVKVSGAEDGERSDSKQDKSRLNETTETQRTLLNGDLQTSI
Sequence of rat SST-R1 (P28646 whole entry): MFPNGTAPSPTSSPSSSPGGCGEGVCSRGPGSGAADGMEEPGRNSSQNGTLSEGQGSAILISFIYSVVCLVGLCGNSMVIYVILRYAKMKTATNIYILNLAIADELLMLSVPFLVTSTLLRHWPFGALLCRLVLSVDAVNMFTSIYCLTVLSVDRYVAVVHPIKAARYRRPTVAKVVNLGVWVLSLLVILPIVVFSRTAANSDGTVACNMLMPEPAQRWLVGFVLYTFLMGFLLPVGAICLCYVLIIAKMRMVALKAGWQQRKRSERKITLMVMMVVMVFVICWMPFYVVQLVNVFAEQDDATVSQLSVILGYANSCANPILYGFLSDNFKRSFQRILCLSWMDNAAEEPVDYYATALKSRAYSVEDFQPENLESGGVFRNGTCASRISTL
Sequence of rat SST-R4 (P30937 whole entry): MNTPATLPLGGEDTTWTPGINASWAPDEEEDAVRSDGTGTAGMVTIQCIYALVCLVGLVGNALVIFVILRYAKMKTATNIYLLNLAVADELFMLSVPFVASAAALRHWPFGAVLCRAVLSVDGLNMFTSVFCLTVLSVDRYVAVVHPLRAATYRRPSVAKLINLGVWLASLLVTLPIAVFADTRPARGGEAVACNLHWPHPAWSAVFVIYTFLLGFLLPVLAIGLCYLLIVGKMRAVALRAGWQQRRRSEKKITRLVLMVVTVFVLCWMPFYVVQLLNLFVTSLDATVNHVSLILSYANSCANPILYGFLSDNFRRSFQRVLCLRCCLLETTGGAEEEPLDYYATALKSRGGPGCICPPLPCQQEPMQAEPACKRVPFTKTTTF
Sequence of rat SST-R3 (P30936 whole entry): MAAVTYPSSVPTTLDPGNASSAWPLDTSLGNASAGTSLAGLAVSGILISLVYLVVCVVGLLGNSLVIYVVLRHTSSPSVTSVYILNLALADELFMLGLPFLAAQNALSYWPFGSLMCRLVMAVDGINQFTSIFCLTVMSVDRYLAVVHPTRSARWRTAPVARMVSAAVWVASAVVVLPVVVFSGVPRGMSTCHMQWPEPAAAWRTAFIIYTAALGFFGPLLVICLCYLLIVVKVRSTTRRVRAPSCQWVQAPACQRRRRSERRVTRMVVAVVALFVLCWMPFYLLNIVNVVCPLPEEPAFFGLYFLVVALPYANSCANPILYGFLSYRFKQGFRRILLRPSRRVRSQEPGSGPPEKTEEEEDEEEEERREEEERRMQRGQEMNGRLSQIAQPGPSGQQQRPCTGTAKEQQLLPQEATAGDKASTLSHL

Row | inhibition at 0.01 µM (SST-R2; [1]) [%] | inhibition at 0.1 µM (SST-R2; [2]) [%] | inhibition at 10 pM (SST-R2) [%] | inhibition at 0.0001 µM (SST-R2) [%] | inhibition at 0.001 µM (SST-R2) [%] | inhibition at 0.01 µM (SST-R2; [3]) [%] | inhibition at 0.1 µM (SST-R2; [4]) [%] | Molecule | other results
1 | – | – | – | – | – | – | – | ReO-MA-Dpr(Gly)-Gly-Dab*-Phe-Trp-(D)Trp-Lys-Thr-Phe-GlyC3*-NH2 [ReO-3397] | IC50 (rat SST-R4; # rows: determined in rat somatostatin receptors, read-out: Concentration (nM) of SST analogs to inhibit SRIF binding by 50%, SST-R 4): 3.3 nM; IC50 (rat SST-R4; rat SST-R4, read-out: Selectivity: IC50, nM, rat SST-R-4): 3.3 nM; IC50 (rat SST-R5; # rows: determined in rat somatostatin receptors, read-out: Concentration (nM) of SST analogs to inhibit SRIF binding by 50%, SST-R 5): 2.2 nM; IC50 (rat SST-R5; rat SST-R5, read-out: Selectivity: IC50, nM, rat SST-R-5): 2.2 nM; IC50 (rat SST-R2; # rows: determined in rat somatostatin receptors, read-out: Concentration (nM) of SST analogs to inhibit SRIF binding by 50%, SST-R 2): 0.25 nM; IC50 (rat SST-R2; rat SST-R2, read-out: Selectivity: IC50, nM, rat SST-R-2): 0.25 nM; IC50 (rat SST-R1; # rows: determined in rat somatostatin receptors, read-out: Concentration (nM) of SST analogs to inhibit SRIF binding by 50%, SST-R 1): 89 nM; IC50 (rat SST-R1; rat SST-R1, read-out: Selectivity: IC50, nM, rat SST-R-1): 89 nM; IC50 (rat SST-R3; # rows: determined in rat somatostatin receptors, read-out: Concentration (nM) of SST analogs to inhibit SRIF binding by 50%, SST-R 3): 76 nM; IC50 (rat SST-R3; rat SST-R3, read-out: Selectivity: IC50, nM, rat SST-R-3): 76 nM
2 | 65 | 83 | -8.5 | -0.67 | 30 | 57 | 86 | C[C@@H](O)[C@@H]1NC(=O)[C@H](CCCCN)NC(=O)[C@@H](Cc2c[nH]c3ccccc23)NC(=O)[C@H](Cc2c[nH]c3ccccc23)NC(=O)[C@H](Cc2ccccc2)NC(=O)[C@@H](NC(=O)CNC(=O)CN(CCN(CCN(CC(=O)O)CC(=O)O)CC(=O)O)CC(=O)O)CCNC(=O)CCCN(CC(N)=O)C(=O)[C@H](Cc2ccccc2)NC1=O [PTR 3319, In-DTPA-Gly-Dab*-Phe-Trp-(D)Trp-Lys-Thr-Phe-GlyC3*-NH2] | –
3 | 53 | 87 | -8.5 | 10 | 37 | 69 | 89 | C[C@@H](O)[C@@H]1NC(=O)[C@H](CCCCN)NC(=O)[C@@H](Cc2c[nH]c3ccccc23)NC(=O)[C@H](Cc2c[nH]c3ccccc23)NC(=O)[C@H](Cc2ccccc2)NC(=O)[C@@H](NC(=O)CN(CCN(CCN(CC(=O)O)CC(=O)O)CC(=O)O)CC(=O)O)CCNC(=O)CCCN(CC(N)=O)C(=O)[C@H](Cc2ccccc2)NC1=O [PTR 3337, In-DTPA-Dab*-Phe-Trp-(D)Trp-Lys-Thr-Phe-GlyC3*-NH2] | –
4 | – | – | – | – | – | – | – | In-DTPA-GABA-Phe(C3**)-Cys*-Phe-(D)Trp-Lys-Thr-Cys*-Phe(N3 **)-NH2 [PTR 3351] | SRIF Inhibited (%) 10 nM (SST-R2; 10 nM, SST-R2): 5%; SRIF Inhibited (%) 100 nM (SST-R2; 100 nM, SST-R2): 53%
5 | 27 | 69 | -11 | 3 | 17 | 52 | 78 | C[C@@H](O)[C@@H]1NC(=O)[C@H](CCCCN)NC(=O)[C@@H](Cc2c[nH]c3ccccc23)NC(=O)[C@H](Cc2c[nH]c3ccccc23)NC(=O)[C@H](Cc2ccccc2)NC(=O)[C@@H](NC(=O)CCNC(=O)CN(CCN(CCN(CC(=O)O)CC(=O)O)CC(=O)O)CC(=O)O)CCNC(=O)CCCN(CC(N)=O)C(=O)[C@H](Cc2ccccc2)NC1=O [PTR 3339, In-DTPA-b-Ala-Dab*-Phe-Trp-(D)Trp-Lys-Thr-Phe-GlyC3*-NH2] | –
6 | – | – | – | – | – | – | – | In-DTPA-3-aminomethylbenzoic acid-Phe(C3**)-Cys*-Phe-(D)Trp-Lys-Thr-Cys*-Phe(N3**)-NH2 [PTR 3355] | SRIF Inhibited (%) 10 nM (SST-R2; 10 nM, SST-R2): 8%; SRIF Inhibited (%) 100 nM (SST-R2; 100 nM, SST-R2): 34%
7 | 35 | 76 | -9.5 | -4.8 | 12 | 44 | 76 | C[C@@H](O)[C@@H]1NC(=O)[C@H](CCCCN)NC(=O)[C@@H](Cc2c[nH]c3ccccc23)NC(=O)[C@H](Cc2c[nH]c3ccccc23)NC(=O)[C@H](Cc2ccccc2)NC(=O)[C@@H](NC(=O)CCCNC(=O)CN(CCN(CCN(CC(=O)O)CC(=O)O)CC(=O)O)CC(=O)O)CCNC(=O)CCCN(CC(N)=O)C(=O)[C@H](Cc2ccccc2)NC1=O [PTR 3341, In-DTPA-GABA-Dab*-Phe-Trp-(D)Trp-Lys-Thr-Phe-GlyC3*-NH2] | –
